{"source": "patent US11717536B2", "about": "“Treatment for periodontitis” (THE UNIVERSITY OF MELBOURNE, priority 2017, dated 2023)", "tested_on": "enamel substratum of the polymicrobial biofilm caries model", "experiment": "Enamel subsurface demineralization in the polymicrobial biofilm caries model (transverse microradiography)", "set-up": "species or system human", "conditions": "for integrated mineral loss ΔZd / lesion depth LD: twice daily 10 min pulses, mean ± SD", "experimental": "To model supragingival plaque six representative oral bacterial species, Streptococcus sanguinis (NCTC 7863), Streptococcus mutans Ingbritt, Actinomyces naeslundii (NCTC 10301), Veillonella parvula (ATCC 17745), Lactobacillus casei (NCDO 161) and Fusobacterium nucleatum (ATCC 10953) (Table 5) were cultured as a polymicrobial biofilm on a human enamel substratum in a constant-depth film fermenter (CDFF; Cardiff University, UK). The CDFF was housed in a 37° C. incubator under anaerobic conditions which were maintained by a constant flow of 5% CO2 in N2 at 1 L/h. The CDFF contained 15 removable polytetrafluoroethylene (PTFE) pans on a circular platform that was rotated at a constant speed of three rpm. The biofilms were grown on three enamel blocks (see below) in each PTFE pan using an artificial saliva medium (ASM, 2.5 g/L mucin type II (porcine, gastric, Sigma), 2.0 g/L bacteriological peptone (Oxoid), 2.0 g/L tryptone (Oxoid), 1.0 g/L yeast extract (Oxoid), 0.35 g/L NaCl, 0.2 g/L KCl, 0.2 mg/L vitamin K, 1 mg/L haemin and 0.1 g/L cysteine hydrochloride) at a constant flow rate of 30 mL/h. Prior to inoculation, the CDFF pan surfaces were conditioned for 24 h with ASM at a flow rate of 10 mL/h (McBain et al (2003) J Appl Microbiol. 94(4):655-66). In order to mimic in vivo bacterial growth conditions in the oral cavity with dietary sugar intake and to provide a high cariogenic challenge, a 1% (w/v) sucrose solution in ASM was pumped into the CDFF four times a day at four hourly intervals with a flow rate of 30 mL/h for 10 min.\nThree treatments were applied to the polymicrobial biofilms: 290 ppm fluoride with 220 ppm fluoride as SnF2 and 70 ppm fluoride as NaF (referred to as SnF2), 2% CPP-ACP and 2% CPP-ACP-SnF2. These treatments were compared with the control in which the test solution was replaced with ASM. Each treatment was applied using two 10 min pulses of the test solution in ASM with a flow rate of 30 mL/h. The first pulse started 30 min prior to the first sucrose pulse of the morning and the second started 3 h 30 min after the final sucrose pulse of the day.\nOn day 6, 12 and 19 after inoculation four pans were removed aseptically from the CDFF and replaced with blank sterile pans. Enamel blocks from the pans were removed for bacterial enumeration and transverse microradiography.\nThree hundred and sixty extracted human third molars were obtained under University of Melbourne ethics approval (HREC #1237616) and sterilized by exposure to 4.1 kGy of gamma radiation. Enamel blocks were cut from the teeth with approximately 6×3×3 mm dimensions using a water-cooled diamond blade saw (Minitom, Struers) and polished using a RotoPol/RotoForce lapping instrument with 1200, 2400, 4000 grit lapping papers (Struers) and 3 and 1 μm diamond polishing pastes (Struers). The blocks were positioned in custom made CDFF pans at a depth of 100 μm and sealed in place with yellow sticky wax (Kemdent) and sterilized by exposure to 4.1 kGy of gamma radiation.\nTransverse microradiography was carried out essentially as described previously [Shen et al 2011]. […] The lesion depth (μm) was determined as the distance to the point at which the mineral content reaches 95% of the sound enamel value. The integrated mineral loss (IML), represented as ΔZd, was calculated by trapezoidal integration as the area between the sound-enamel densitometric profile and that of the demineralized enamel densitometric profile in vol % min·μm.", "note": "“And” between values parts separate entries of the source, which are not always exact repeats. Equal values may be shown once. Marks after values point to notes of the source that are not given here."}
{"substance": "Casein phosphopeptide-amorphous calcium phosphate [CPP-ACP]", "values": [{"measurement": "integrated mineral loss ΔZd", "setting": "Day 6", "value": "572.9 ± 97.80", "unit": "vol % min · μm"}, {"measurement": "lesion depth LD", "setting": "Day 6", "value": "15.0 ± 2.1^a μm"}, {"measurement": "integrated mineral loss ΔZd", "setting": "Day 12", "value": "1075.3 ± 148.0^ad vol % min · μm"}, {"measurement": "lesion depth LD", "setting": "Day 12", "value": "26.3 ± 4.4^ade μm"}, {"measurement": "integrated mineral loss ΔZd", "setting": "Day 19", "value": "2105.4 ± 346.2^bd vol % min · μm"}, {"measurement": "lesion depth LD", "setting": "Day 19", "value": "52.3 ± 3.2^ad μm"}, {"measurement": "rate of demineralization", "setting": "between day 6 and day 19", "value": 112.1, "unit": "vol % min·μm/day"}, {"measurement": "reduction in rate of demineralization relative to control", "setting": "between day 6 and day 19, twice daily exposure", "value": "50.2% and 50%"}]}
